# Laboratory results taken from ChEMBL document CHEMBL1201862, “PubChem BioAssay data set” (2004).
#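 Briefly, cells in 96-well plates were exposed to five compound concentrations for 48 h, and endpoints were estimated by linear interpolation. Abbreviation: GI50, concentration required for 50% inhibition of growth.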 Activity calls are given as the source filed them. No stated cut-off is given here; in the data, active = GI50 up to about 1.1 µM and inactive = higher.
# How the values were obtained:
# Assay in all cases: inhibition of tumour cell growth, NCI panel, 48 h
# MDA-MB-435 = tested on: MDA-MB-435
# MOLT-4 = tested on: MOLT-4
# 786-0 = tested on: 786-0
# UACC-62 = tested on: UACC-62
# UO-31 = tested on: UO-31
# OVCAR-8 = tested on: OVCAR-8
# SF-539 = tested on: SF-539
# MDA-N = tested on: MDA-N
# T47D = tested on: T47D
# SN12C = tested on: SN12C
# SK-MEL-5 = tested on: SK-MEL-5
# SK-MEL-2 = tested on: SK-MEL-2
# HOP-92 = tested on: HOP-92
# COLO 205 = tested on: COLO 205
# IGROV-1 = tested on: IGROV-1
# HL-60 = tested on: HL-60
# SF-295 = tested on: SF-295
# SK-OV-3 = tested on: SK-OV-3
# SNB-75 = tested on: SNB-75
# MCF7 = tested on: MCF7
Compound,GI50 (MDA-MB-435),GI50 (MOLT-4),GI50 (786-0),GI50 (UACC-62),GI50 (UO-31),GI50 (OVCAR-8),GI50 (SF-539),GI50 (MDA-N),GI50 (T47D),GI50 (SN12C),GI50 (SK-MEL-5),GI50 (SK-MEL-2),GI50 (HOP-92),GI50 (COLO 205),GI50 (IGROV-1),GI50 (HL-60),GI50 (SF-295),GI50 (SK-OV-3),GI50 (SNB-75),GI50 (MCF7)
C[C@@H]1[C@@H](c2ccccc2)O[B-](c2ccccc2)(c2ccccc2)N1C,35.4 µM (inactive),43.7 µM (inactive),65.8 µM (inactive),41 µM (inactive),20.9 µM (inactive),72.3 µM (inactive),27.3 µM (inactive),52 µM (inactive),38.9 µM (inactive),61.5 µM (inactive),30 µM (inactive),49.5 µM (inactive),27.8 µM (inactive),22.3 µM (inactive),69 µM (inactive),15.3 µM (inactive),62.4 µM (inactive),55.3 µM (inactive),,
Nc1nc(Cl)c2ncn(Cc3ccccc3CCl)c2n1,6.07 µM (inactive),5.19 µM (inactive),16.9 µM (inactive),2.21 µM (inactive),15.7 µM (inactive),3.86 µM (inactive),18 µM (inactive),,24.2 µM (inactive),2.74 µM (inactive),8.55 µM (inactive),18.5 µM (inactive),6.52 µM (inactive),5.05 µM (inactive),6.34 µM (inactive),3.72 µM (inactive),7.4 µM (inactive),15.3 µM (inactive),8.13 µM (inactive),5.97 µM (inactive)
Oc1ccc[n+](Cc2ccccc2)c1,> 100 µM (inactive),> 100 µM (inactive),> 100 µM (inactive),> 100 µM (inactive),> 100 µM (inactive),> 100 µM (inactive),> 100 µM (inactive),> 100 µM (inactive),> 100 µM (inactive),> 100 µM (inactive),> 100 µM (inactive),> 100 µM (inactive),,> 100 µM (inactive),,> 100 µM (inactive),> 100 µM (inactive),> 100 µM (inactive),> 100 µM (inactive),> 100 µM (inactive)
O=C(O)C1CCCCC1C(=O)Nn1cnnc1 (configuration not stated),> 100 µM (inactive),> 100 µM (inactive),> 100 µM (inactive),> 100 µM (inactive),> 100 µM (inactive),> 100 µM (inactive),> 100 µM (inactive),> 100 µM (inactive),,> 100 µM (inactive),> 100 µM (inactive),> 100 µM (inactive),> 100 µM (inactive),> 100 µM (inactive),> 100 µM (inactive),,> 100 µM (inactive),> 100 µM (inactive),> 100 µM (inactive),> 100 µM (inactive)
O=c1ccn2n1Cc1ccccc1C2,> 100 µM (inactive),> 100 µM (inactive),> 100 µM (inactive),> 100 µM (inactive),79.8 µM (inactive),> 100 µM (inactive),> 100 µM (inactive),,> 100 µM (inactive),> 100 µM (inactive),> 100 µM (inactive),> 100 µM (inactive),> 100 µM (inactive),> 100 µM (inactive),> 100 µM (inactive),> 100 µM (inactive),> 100 µM (inactive),> 100 µM (inactive),,
Cc1cc(NC(=O)NC(=O)c2ccccc2NC(=O)CN)ccc1Oc1ncc(Br)cn1,0.145 µM (active),2.5 µM (inactive),0.502 µM (active),0.207 µM (active),0.246 µM (active),1.17 µM (inactive),,0.105 µM (active),12.3 µM (inactive),1.16 µM (inactive),,0.437 µM (active),3.6 µM (inactive),0.249 µM (active),0.847 µM (active),,0.0661 µM (active),,0.139 µM (active),0.259 µM (active)
N#C/C(=C\c1cc(Br)c(O)c(Br)c1)c1cccnc1,,23.9 µM (inactive),10.1 µM (inactive),43.8 µM (inactive),22.1 µM (inactive),35.6 µM (inactive),26.2 µM (inactive),> 100 µM (inactive),,34.7 µM (inactive),> 10 µM (inactive),19.3 µM (inactive),,22.8 µM (inactive),52.8 µM (inactive),27 µM (inactive),18.5 µM (inactive),42.2 µM (inactive),75 µM (inactive),33 µM (inactive)
CCC(O)(Cc1ccc(OC)cc1)c1ccc(OC)cc1 (configuration not stated),> 100 µM (inactive),> 100 µM (inactive),> 100 µM (inactive),> 100 µM (inactive),> 100 µM (inactive),> 100 µM (inactive),> 100 µM (inactive),> 100 µM (inactive),,> 100 µM (inactive),> 100 µM (inactive),> 100 µM (inactive),> 100 µM (inactive),> 100 µM (inactive),> 100 µM (inactive),> 100 µM (inactive),> 100 µM (inactive),> 100 µM (inactive),> 100 µM (inactive),> 100 µM (inactive)
